Laboratory results taken from patent US9193744B2, “Heterocyclic nuclear hormone receptor modulators” (AbbVie Inc., priority 2012, dated 2015).

How the values were obtained:
[1] = system: IL-6; test: A549 Cell Assay to Measure Inflammation Markers (inhibition of IL-1β-induced IL-6); assay type: cell-based; conditions: Homo sapiens; A549 cells; read-out: A549 cell assay
Procedure, shortened: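 A549 cells pre-incubated 1 h with compound (10-point dilution, 0.1% DMSO final) in charcoal-stripped serum medium, then stimulated 4 h with 1 ng/mL IL-1β at 37° C. Supernatant IL-6 measured by MSD immunoassay; IC50 and Emax relative to 1 μM prednisolone as 100% inhibition; viability checked by CellTiter-Glo.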

[2] = system: OCN; test: MG-63 Cell Assay to Measure Bone Markers (inhibition of Vitamin K/Vitamin D-induced OCN); assay type: cell-based; conditions: Homo sapiens, MG63 cells
Experimental: MG-63 Cell Assay to Measure Bone Markers
MG-63 cells were cultured in culture media containing ascorbic acid (DMEM/F12 supplemented with 10% FBS, 1% HEPES, 100 U/mL-100 μg/mL Pen-Strep, and 100 μg/mL of ascorbic acid) for, minimally, 1 week before study. MG-63 cells were seeded (4E4 cells/well) in 96-well assay plates in culture medium (200 μL/well.) After overnight culture in an incubator set to 37° C., 4.9% CO2, and 90% humidity, media was removed from adherent cells by aspiration and replaced with 100 μL/well assay medium, DMEM/F12 supplemented with 5% Charcoal Stripped Serum, 1% HEPES, 100 U/mL-100 μg/mL Pen-Strep, and 100 μg/mL of ascorbic acid. Compounds were prepared with DMSO and serial diluted (1:3, 1:4, or 1:5) with DMSO in dilution plate(s) to give 10 dilution points for each compound tested. Further dilution (1:250) of compound was made into assay medium and 50 μL/well diluted drug or DMSO/media control was applied to cells. After a 1 h pre-incubation in a temperature, CO2, and humidity controlled incubator, set to 37° C., 50 μL/well of 40 nM Vitamin K and 400 nM Vitamin D that were diluted in assay media were applied to plates. Assay plates, with a final volume of 200 μL/well and final concentrations of 0.1% DMSO, 10 nM Vitamin K, and 100 nM Vitamin D, were returned to incubator for overnight culture. Next, plates were spun at 183 g (1000 rpm in Beckman/Coulter Allegra 6KR centrifuge) for 10 min. Cell-free supenatant (150 μL/well) was collected and OCN was measured by MSD kit, following protocol of manufacturer, and using MSD SECTOR Imager 6000 instrument. Potency of drug to inhibit OCN was determined using the percent reduction of measured OCN in wells with drug compared to control wells without drug, and relative to (100% inhibition) positive control sample of 10 μM prednisolone. Results were represented as IC50 and Emax values. To verify that viable cell numbers were similar across plate(s), and not confounding compound IC50 data interpretation, the remaining 50 μL/well of cells and media (after removal of supernatant) were used to run Cell Titer-Glo Assay per directions of manufacturer.

[3] = molecular target: T1, Glucocorticoid Receptor (GR) (Homo sapiens, UniProt P04150); test: GR Fluorescence Polarization Assay (PolarScreen Glucocorticoid Receptor Competitor Assay, Red); conditions: fluorescence polarization binding ranges
T1 construct: purchased Invitrogen P2893
T1 sequence (P04150 1-777): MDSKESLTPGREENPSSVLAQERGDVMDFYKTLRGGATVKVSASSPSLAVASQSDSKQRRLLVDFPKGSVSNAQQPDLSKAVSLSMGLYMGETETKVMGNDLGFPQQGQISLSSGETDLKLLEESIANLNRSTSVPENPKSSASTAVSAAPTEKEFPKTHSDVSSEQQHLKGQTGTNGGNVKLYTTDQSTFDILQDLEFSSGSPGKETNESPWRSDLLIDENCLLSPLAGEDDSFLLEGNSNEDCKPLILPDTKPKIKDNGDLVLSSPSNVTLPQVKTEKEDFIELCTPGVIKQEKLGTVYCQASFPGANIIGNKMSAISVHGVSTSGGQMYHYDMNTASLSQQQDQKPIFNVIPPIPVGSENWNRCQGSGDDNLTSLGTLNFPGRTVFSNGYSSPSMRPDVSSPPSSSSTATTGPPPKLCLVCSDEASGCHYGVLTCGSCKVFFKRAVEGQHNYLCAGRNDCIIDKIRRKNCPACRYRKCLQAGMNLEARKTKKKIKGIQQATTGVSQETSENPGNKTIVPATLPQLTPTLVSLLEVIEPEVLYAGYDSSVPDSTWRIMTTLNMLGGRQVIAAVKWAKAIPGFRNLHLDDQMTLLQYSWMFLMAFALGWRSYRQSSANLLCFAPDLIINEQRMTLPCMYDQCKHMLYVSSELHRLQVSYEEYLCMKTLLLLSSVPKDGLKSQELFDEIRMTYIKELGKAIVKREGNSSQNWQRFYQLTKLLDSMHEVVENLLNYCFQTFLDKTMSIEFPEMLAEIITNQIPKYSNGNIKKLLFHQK
Procedure, shortened: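 Competitive fluorescence polarization using a red fluorescent glucocorticoid tracer and GR in kit buffer. Compounds in 1:4 DMSO serial dilution, incubated with tracer and receptor overnight at 4° C before polarization read-out.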

CC[C@@]12CC[C@@](O)(COC)C[C@H]1CCCc1cc3c(cnn3-c3ccc(F)cc3)cc12 (single isomer, unassigned) [Example 7]
IC50 [1]: < 100 nM
IC50 [2]: > 10000 nM
IC50 [3]: < 100 nM

CCOC[C@]1(O)CC[C@@]2(CC)c3cc4cnn(-c5ccc(F)cc5)c4cc3CCC[C@@H]2C1 (single isomer, unassigned) [Example 9]
IC50 [1]: 100 to 1000 nM
IC50 [2]: > 10000 nM
IC50 [3]: < 100 nM

COC[C@@]1(O)CC[C@@]2(Cc3ccccn3)c3cc4cnn(-c5ccc(F)cc5)c4cc3CCC[C@H]2C1 (single isomer, unassigned) [Example 12]
IC50 [1]: < 100 nM
IC50 [2]: < 100 nM
IC50 [3]: < 100 nM

COC[C@]1(O)CC[C@]2(Cc3ccccn3)c3cc4cnn(-c5ccc(F)cc5)c4cc3CCC[C@@H]2C1 (single isomer, unassigned) [Example 13]
IC50 [1]: < 100 nM
IC50 [2]: < 100 nM
IC50 [3]: < 100 nM
